Data reported in US20260070945A1, “MACROCYCLIC IMMUNOMODULATORS” (Bristol-Myers Squibb Company, priority 2022, published 2026).
*1 amine or outer side, *2 acyl side, *3 side chain or, on linkers, in order; H or OH if unused. Where a SMILES comes first, the peptide text is derived from it. Bridges are numbered along the chain shown (N, C = ends). [ ]: non-standard residue; d: D form. The star is where a group is joined. ξ: configuration not given here. Phe(4-COOH) = N[C@@H](Cc1ccc(C(=O)O)cc1)C(=O)O; Bip = N[C@@H](Cc1ccc(-c2ccccc2)cc1)C(=O)O; Phe(3-Me) = Cc1cccc(C[C@H](N)C(=O)O)c1; NMeAEEA = CN(CCOCCOCC(=O)[*:2])[*:1]; Cha = N[C@@H](CC1CCCCC1)C(=O)O; Cit = NC(=O)NCCC[C@H](N)C(=O)O; Thr(3ξ) = CC(O)[C@H](N)C(=O)O; 12Ado = NCCCCCCCCCCCC(=O)O; hSer = N[C@@H](CCO)C(=O)O; Carboxymethyl = O=C(O)C*; NMeA = CN[C@@H](C)C(=O)O; Aun = NCCCCCCCCCCC(=O)O; Dab = NCC[C@H](N)C(=O)O; AEEA = NCCOCCOCC(=O)O

Biological target: T1, PD-1/PD-L1 interaction (PE-labeled human PD-L1-Ig binding to Jurkat cell line over-expressing human PD-1) (Homo sapiens, UniProt Q15116)
T1 construct: expressed in transfected cells; host or cells: Jurkat
Test: Jurkat-PD-1 Cell Binding High-Content Screening Assay (CBA)
Conditions: Jurkat-hPD-1 cells, PE-labeled PD-L1-Ig 20 nM final; read-out: Jurkat HPD1 PDL1 IC50
In short: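 Cells 8×10^3/well, DMEM + 10% FCS; cpd 2 h, 37 °C; PE–PD-L1-Ig 20 nM final, 1 h; PFA fix + Hoechst 33342, 3× dPBS wash; high-content imager.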

T1 sequence (Q15116 25-288): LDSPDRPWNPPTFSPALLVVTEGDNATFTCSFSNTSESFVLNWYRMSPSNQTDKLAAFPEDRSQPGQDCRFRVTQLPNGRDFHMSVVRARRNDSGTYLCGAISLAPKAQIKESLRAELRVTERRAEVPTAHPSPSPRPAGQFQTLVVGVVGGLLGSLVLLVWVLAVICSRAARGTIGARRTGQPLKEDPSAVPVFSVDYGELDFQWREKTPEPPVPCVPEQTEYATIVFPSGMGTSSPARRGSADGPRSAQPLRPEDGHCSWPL

SMILES	IC50
Cc1cccc(C[C@@H]2NC(=O)[C@H](CC(=O)O)NC(=O)[C@H](Cc3ccc(OCC(=O)O)cc3)NC(=O)[C@H](C(C)O)NC(=O)CSC[C@@H](C(=O)N[C@@H](CCN)C(=O)NCCCCCCCCCCC(=O)O)NC(=O)[C@H](C(C)O)NC(=O)[C@H](C(C)C)NC(=O)[C@H](CC3CCCCC3)NC(=O)[C@H](CCN)NC(=O)[C@@H](CC(C)C)NC(=O)[C@H](C)N(C)C(=O)[C@H](Cc3ccc(OCC(=O)O)cc3)NC(=O)[C@H](Cc3ccc(-c4ccccc4)cc3)NC(=O)[C@H](Cc3ccc(C(=O)O)cc3)NC2=O)c1 (stereo partly drawn) [Example 2353] ({CH2CO}-[Thr(3ξ)]Y(Carboxymethyl)D[Phe(3-Me)][Phe(4-COOH)][Bip]Y(Carboxymethyl)[NMeA][dL][Dab][Cha]V[Thr(3ξ)]C[Dab][Aun]-OH; thioether N-14)	0.0215 µM
Cc1cccc(C[C@@H]2NC(=O)[C@H](CC(=O)O)NC(=O)[C@H](Cc3ccc(OCC(=O)O)cc3)NC(=O)[C@H](C(C)O)NC(=O)CSC[C@@H](C(=O)N[C@@H](CCN)C(=O)NCCCCCCCCCCC(=O)O)NC(=O)[C@H](C(C)O)NC(=O)[C@H](C(C)C)NC(=O)[C@H](CC3CCCCC3)NC(=O)[C@H](CCN)NC(=O)[C@@H](CC(C)C)NC(=O)[C@H](C)N(C)C(=O)[C@H](Cc3ccc(OCC(=O)O)cc3)NC(=O)[C@H](Cc3ccc(-c4ccccc4)cc3)NC(=O)[C@H](CCCNC(N)=O)NC2=O)c1 (stereo partly drawn) [Example 2354] ({CH2CO}-[Thr(3ξ)]Y(Carboxymethyl)D[Phe(3-Me)][Cit][Bip]Y(Carboxymethyl)[NMeA][dL][Dab][Cha]V[Thr(3ξ)]C[Dab][Aun]-OH; thioether N-14)	0.0214 µM
Cc1cccc(C[C@@H]2NC(=O)[C@H](CC(=O)O)NC(=O)[C@H](Cc3ccc(OCC(=O)O)cc3)NC(=O)[C@H](C(C)O)NC(=O)CSC[C@@H](C(=O)N(C)CCOCCOCC(=O)NCCCCCCCCCCC(=O)O)NC(=O)[C@H](C(C)C)NC(=O)[C@H](C(C)C)NC(=O)[C@H](CC3CCCCC3)NC(=O)[C@H](CCN)NC(=O)[C@@H](CC(C)C)NC(=O)[C@H](C)N(C)C(=O)[C@H](CCCNC(N)=O)NC(=O)[C@H](Cc3ccc(-c4ccccc4)cc3)NC(=O)[C@H](C(C)C)NC2=O)c1 (stereo partly drawn) [Example 2355] ({CH2CO}-[Thr(3ξ)]Y(Carboxymethyl)D[Phe(3-Me)]V[Bip][Cit][NMeA][dL][Dab][Cha]VVC[NMeAEEA][Aun]-OH; thioether N-14)	0.0453 µM
Cc1cccc(C[C@@H]2NC(=O)[C@H](CC(=O)O)NC(=O)[C@H](Cc3ccc(OCC(=O)O)cc3)NC(=O)[C@H](CCCNC(=N)N)NC(=O)CSC[C@@H](C(=O)N(C)CCOCCOCC(=O)NCCCCCCCCCCC(=O)O)NC(=O)[C@H](C(C)C)NC(=O)[C@H](C(C)C)NC(=O)[C@H](CC3CCCCC3)NC(=O)[C@H](CCN)NC(=O)[C@@H](CC(C)C)NC(=O)[C@H](C)N(C)C(=O)[C@H](CCCNC(N)=O)NC(=O)[C@H](Cc3ccc(-c4ccccc4)cc3)NC(=O)[C@H](C(C)C)NC2=O)c1 [Example 2356] ({CH2CO}-RY(Carboxymethyl)D[Phe(3-Me)]V[Bip][Cit][NMeA][dL][Dab][Cha]VVC[NMeAEEA][Aun]-OH; thioether N-14)	0.0347 µM
Cc1cccc(C[C@@H]2NC(=O)[C@H](CC(=O)O)NC(=O)[C@H](Cc3ccc(OCC(=O)O)cc3)NC(=O)[C@H](C(C)O)NC(=O)CSC[C@@H](C(=O)N(C)CCOCCOCC(=O)NCCCCCCCCCCC(=O)O)NC(=O)[C@H](CCC(N)=O)NC(=O)[C@H](C(C)C)NC(=O)[C@H](CC3CCCCC3)NC(=O)[C@H](CCN)NC(=O)[C@@H](CC(C)C)NC(=O)[C@H](C)N(C)C(=O)[C@H](C(C)C)NC(=O)[C@H](Cc3ccc(-c4ccccc4)cc3)NC(=O)[C@H](C(C)C)NC2=O)c1 (stereo partly drawn) [Example 2357] ({CH2CO}-[Thr(3ξ)]Y(Carboxymethyl)D[Phe(3-Me)]V[Bip]V[NMeA][dL][Dab][Cha]VQC[NMeAEEA][Aun]-OH; thioether N-14)	0.0667 µM
CC(=O)NCCCC[C@@H]1NC(=O)[C@H](Cc2ccc(-c3ccccc3)cc2)NC(=O)[C@H](C(C)C)NC(=O)[C@H](Cc2cccc(C)c2)NC(=O)[C@H](CC(=O)O)NC(=O)[C@H](Cc2ccc(OCC(=O)O)cc2)NC(=O)[C@H](C(C)O)NC(=O)CSC[C@@H](C(=O)N(C)CCOCCOCC(=O)NCCCCCCCCCCC(=O)O)NC(=O)[C@H](C(C)C)NC(=O)[C@H](C(C)C)NC(=O)[C@H](CC2CCCCC2)NC(=O)[C@H](CCN)NC(=O)[C@@H](CC(C)C)NC(=O)[C@H](C)N(C)C1=O (stereo partly drawn) [Example 2358] ({CH2CO}-[Thr(3ξ)]Y(Carboxymethyl)D[Phe(3-Me)]V[Bip]K(Ac)[NMeA][dL][Dab][Cha]VVC[NMeAEEA][Aun]-OH; thioether N-14)	0.0166 µM
Cc1cccc(C[C@@H]2NC(=O)[C@H](CC(=O)O)NC(=O)[C@H](Cc3ccc(OCC(=O)O)cc3)NC(=O)[C@H](C(C)O)NC(=O)CSC[C@@H](C(=O)N(C)CCOCCOCC(=O)NCCCCCCCCCCC(=O)O)NC(=O)[C@H](CCCNC(N)=O)NC(=O)[C@H](C(C)C)NC(=O)[C@H](CC3CCCCC3)NC(=O)[C@H](CCN)NC(=O)[C@@H](CC(C)C)NC(=O)[C@H](C)N(C)C(=O)[C@H](C(C)C)NC(=O)[C@H](Cc3ccc(-c4ccccc4)cc3)NC(=O)[C@H](C(C)C)NC2=O)c1 (stereo partly drawn) [Example 2359] ({CH2CO}-[Thr(3ξ)]Y(Carboxymethyl)D[Phe(3-Me)]V[Bip]V[NMeA][dL][Dab][Cha]V[Cit]C[NMeAEEA][Aun]-OH; thioether N-14)	0.0263 µM
Cc1cccc(C[C@@H]2NC(=O)[C@H](CC(=O)O)NC(=O)[C@H](Cc3ccc(OCC(=O)O)cc3)NC(=O)[C@H](CCCNC(=N)N)NC(=O)CSC[C@@H](C(=O)N[C@H](CC(N)=O)C(=O)NCCCCCCCCCCC(=O)O)NC(=O)[C@H](C(C)C)NC(=O)[C@H](C(C)C)NC(=O)[C@H](CC3CCCCC3)NC(=O)[C@H](CCN)NC(=O)[C@@H](CC(C)C)NC(=O)[C@H](C)N(C)C(=O)[C@H](Cc3ccc(OCC(=O)O)cc3)NC(=O)[C@H](Cc3ccc(-c4ccccc4)cc3)NC(=O)[C@H](Cc3ccc(OCC(=O)O)cc3)NC2=O)c1 [Example 2360] ({CH2CO}-RY(Carboxymethyl)D[Phe(3-Me)]Y(Carboxymethyl)[Bip]Y(Carboxymethyl)[NMeA][dL][Dab][Cha]VVC[dN][Aun]-OH; thioether N-14)	0.0269 µM
Cc1cccc(C[C@@H]2NC(=O)[C@H](CC(=O)O)NC(=O)[C@H](Cc3ccc(OCC(=O)O)cc3)NC(=O)[C@H](C(C)O)NC(=O)CSC[C@@H](C(=O)N[C@H](CC(N)=O)C(=O)NCCCCCCCCCCC(=O)O)NC(=O)[C@H](C(C)C)NC(=O)[C@H](C(C)C)NC(=O)[C@H](CC3CCCCC3)NC(=O)[C@H](CCN)NC(=O)[C@@H](CC(C)C)NC(=O)[C@H](C)N(C)C(=O)[C@H](Cc3ccc(OCC(=O)O)cc3)NC(=O)[C@H](Cc3ccc(-c4ccccc4)cc3)NC(=O)[C@H](Cc3ccc(OCC(=O)O)cc3)NC2=O)c1 (stereo partly drawn) [Example 2361] ({CH2CO}-[Thr(3ξ)]Y(Carboxymethyl)D[Phe(3-Me)]Y(Carboxymethyl)[Bip]Y(Carboxymethyl)[NMeA][dL][Dab][Cha]VVC[dN][Aun]-OH; thioether N-14)	0.0183 µM
Cc1cccc(C[C@@H]2NC(=O)[C@H](CC(=O)O)NC(=O)[C@H](Cc3ccc(OCC(=O)O)cc3)NC(=O)[C@H](CCCNC(=N)N)NC(=O)CSC[C@@H](C(=O)N[C@H](CC(N)=O)C(=O)NCCCCCCCCCCC(=O)O)NC(=O)[C@H](CCO)NC(=O)[C@H](C(C)C)NC(=O)[C@H](CC3CCCCC3)NC(=O)[C@H](CCN)NC(=O)[C@@H](CC(C)C)NC(=O)[C@H](C)N(C)C(=O)[C@H](Cc3ccc(OCC(=O)O)cc3)NC(=O)[C@H](Cc3ccc(-c4ccccc4)cc3)NC(=O)[C@H](Cc3ccc(OCC(=O)O)cc3)NC2=O)c1 [Example 2362] ({CH2CO}-RY(Carboxymethyl)D[Phe(3-Me)]Y(Carboxymethyl)[Bip]Y(Carboxymethyl)[NMeA][dL][Dab][Cha]V[hSer]C[dN][Aun]-OH; thioether N-14)	0.0402 µM
Cc1cccc(C[C@@H]2NC(=O)[C@H](CC(=O)O)NC(=O)[C@H](Cc3ccc(OCC(=O)O)cc3)NC(=O)[C@H](C(C)O)NC(=O)CSC[C@@H](C(=O)N(C)CCOCCOCC(=O)NCCCCCCCCCCC(=O)O)NC(=O)[C@H](C(C)O)NC(=O)[C@H](C(C)C)NC(=O)[C@H](CC3CCCCC3)NC(=O)[C@H](CCN)NC(=O)[C@@H](CC(C)C)NC(=O)[C@H](C)N(C)C(=O)[C@H](C(C)C)NC(=O)[C@H](Cc3ccc(-c4ccccc4)cc3)NC(=O)[C@H](C(C)C)NC2=O)c1 (stereo partly drawn) [Example 2363] ({CH2CO}-[Thr(3ξ)]Y(Carboxymethyl)D[Phe(3-Me)]V[Bip]V[NMeA][dL][Dab][Cha]V[Thr(3ξ)]C[NMeAEEA][Aun]-OH; thioether N-14)	0.0219 µM
Cc1cccc(C[C@@H]2NC(=O)[C@H](CC(=O)O)NC(=O)[C@H](Cc3ccc(OCC(=O)O)cc3)NC(=O)[C@H](C(C)O)NC(=O)CSC[C@@H](C(=O)N(C)CCOCCOCC(=O)NCCCCCCCCCCC(=O)O)NC(=O)[C@H](CCO)NC(=O)[C@H](C(C)C)NC(=O)[C@H](CC3CCCCC3)NC(=O)[C@H](CCN)NC(=O)[C@@H](CC(C)C)NC(=O)[C@H](C)N(C)C(=O)[C@H](C(C)C)NC(=O)[C@H](Cc3ccc(-c4ccccc4)cc3)NC(=O)[C@H](C(C)C)NC2=O)c1 (stereo partly drawn) [Example 2364] ({CH2CO}-[Thr(3ξ)]Y(Carboxymethyl)D[Phe(3-Me)]V[Bip]V[NMeA][dL][Dab][Cha]V[hSer]C[NMeAEEA][Aun]-OH; thioether N-14)	0.0363 µM
Cc1cccc(C[C@@H]2NC(=O)[C@H](CC(=O)O)NC(=O)[C@H](Cc3ccc(C(=O)O)cc3)NC(=O)[C@H](Cc3ccc(OCC(=O)O)cc3)NC(=O)CSC[C@@H](C(=O)NCCOCCOCC(=O)NCCCCCCCCCCCC(=O)O)NC(=O)[C@H](CCCCN)NC(=O)[C@H](C(C)C)NC(=O)[C@H](CC3CCCCC3)NC(=O)[C@H](Cc3cnc[nH]3)NC(=O)[C@@H](CC(C)C)NC(=O)[C@H](C)N(C)C(=O)[C@H](CCCNC(N)=O)NC(=O)[C@H](Cc3ccc(-c4ccccc4)cc3)NC(=O)[C@H](C(C)C)NC2=O)c1 [Example 2367] ({CH2CO}-Y(Carboxymethyl)[Phe(4-COOH)]D[Phe(3-Me)]V[Bip][Cit][NMeA][dL]H[Cha]VKC[AEEA][12Ado]-OH; thioether N-14)	0.0671 µM
